# From US9914910B2, “Methods of preserving and protecting pancreatic beta cells and treating or preventing diabetes by inhibiting NOX-1” (Eastern Virginia Medical School, priority 2013, dated 2018)
# What was measured:
# βTC-3 cells [1] = experiment: ROS measurement (DCF-DA) after PIC; type: cell-based, mouse; details: βTC-3, PIC 1 hour
# Description: βTC-3 cells were cultured in DMEM media (Life Technologies, Grand Island, N.Y.) supplemented with 18% fetal calf serum, 1% penicillin/streptomycin, 4 mM L-glutamine, 5.5 mM glucose, and 1 mM sodium pyruvate at 370 C with 5% CO2.
# Cells treated for 1 hour were then washed with PBS prior to addition of 10 μM 6-Carboxy-2′,7′-Dichlorodihydrofluorescein Diacetate, Di(Acetoxymethyl ester) (DCF-DA, Life Technologies) for 30 min at 370 C. Post PBS wash cells were incubated at 370 C for 1 hour. Prior to fluorescence measurement (SpectraMax Molecular Devices, Sunnyvale, Calif.) at excitation 480 nm: emission 530 nm.
# Elevation of cellular ROS in beta-cell lines INS-1 (rat beta-cell line) and βTC-3 (mouse beta-cell line) was evaluated by conversion of fluorescent substrate DCF-DA. Following one hour stimulation with a pro-inflammatory cytokine cocktail (PIC; IL-1β, TNF-α, and IFN-γ) detectable ROS elevated from control levels of 0.05±0.02 and 0.09±0.03 (INS-1 and βTC-3 respectively) to 0.25±0.04 and 0.23±0.03 (INS-1 and βTC-3 respectively). This increase was significant p<0.05 and p<0.01 (INS-1 and βTC-3 respectively).
# βTC-3 cells [2] = experiment: Caspase-3 assay (pro-caspase-3 cleavage) after PIC; type: cell-based, mouse; details: βTC-3, PIC 4 hours, up to
# Description: A. Caspase-3 Assay: Pro-caspase-3 cleavage was measured using a caspase-3 Assay kit (BD Pharmigen, Franklin Lakes, N.J.) per the manufacturer's instructions; fluorescence being measured (SpectraMax, Molecular Devices, Sunnyvale, Calif.) at excitation 380 nm and emission 440 nm (INS-1) or 460 nm (βTC-3, mouse).
# primary mouse islets = experiment: Apoptosis by YO-PRO-1 fluorescence microscopy after PIC; type: cell-based
# Description: Human donor islets were obtained from integrated islet distribution project (http://iidp.coh.org) and cultured in CMRL media (Mediatech, Manassas, Va.). Mouse islets were freshly isolated from 8-week old male C57BL/6J mice (Jackson Laboratory, Bar Harbor, Me.) by common bile duct cannulation and collagenase digestion. Islets were hand picked prior to use.
# B. Fluorescence microscopy: Stimulated cells or islets were washed in cold PBS, and incubated for 30 mins at 40 C with cold PBS containing 1 μg/mL propidium iodide and 0.1 μM YO-PRO-1 (Life Technologies). For cell lines, five randomly fields per well were analyzed. For islets, all islets (>1000 um2 in size) were analyzed. Densitometric fluorescent value for YO-PRO-1 (green channel) was normalized to background and expressed proportional to cell occupied area (phase contrast). Images captured across three channels with Axiophot (Zeiss, Jena, Germany) with Axiovision (Zeiss) image analysis.
# FIG. 1: Treatment of primary mouse islets with inflammatory cytokines (TNFα, IL-1β, IFNγ) induces islet/beta cell death (apoptosis) which can be measured in a fluorescent-based assay (green signal) using YO-PRO-1. […] The degree of cell death can be quantified by measuring the green signal. The graph is a quantitative analysis of multiple (≧4 visual fields in replicate wells). The detected relative fluorescent units (RFU) are plotted. […]
# [3] = system: NOX-1 gene expression in primary mouse islets; experiment: PIC-induced NOX-1 gene expression (RT-PCR); type: cell-based
# From the text: Human donor islets were obtained from integrated islet distribution project (http://iidp.coh.org) and cultured in CMRL media (Mediatech, Manassas, Va.). Mouse islets were freshly isolated from 8-week old male C57BL/6J mice (Jackson Laboratory, Bar Harbor, Me.) by common bile duct cannulation and collagenase digestion. Islets were hand picked prior to use. […] Total RNA was isolated using the RNeasy Mini Kit (Qiagen, Valencia, Calif.) and cDNA prepared using MMLV reverse transcriptase (Life Technologies) and random hexamers (Life Technologies). Jump Start Taq polymerase (Life Technologies) was used in PCR reactions. Primers used with SYBR Green 1 (Molecular Probes, Carlsbad, Calif.) probes: […] GAPDH forward [NT] ID NO: 3); GAPDH reverse [NT] NO: 4). RT-PCR reactions were performed in triplicate (CFX96 Bio-Rad, Hercules, Calif.). Taqman primers (Life Technologies) were also used.
# [4] = system: NOX-1 protein in INS-1 cells; experiment: NOX-1 protein expression (western blot); type: cell-based; details: Rattus norvegicus, INS1, 24 h; read-out: inhibition of PIC induction of NOX-1 protein
# Description: (§1) Cells were then lysed (1× PBS, 1% Triton X-100, 1 mM PMSF, 1 mM Halt Protease Inhibitor Cocktail (Pierce, Rockford, Ill.), 1 mM NaVO4), and incubated on ice for 20 min. Cleared (14,000 rpm, 15 min, 4° C.) lysate was collected. Proteins separated on 10% Tris-glycine gels (Life Technologies) were transferred onto PDVF (Immobilon-FL, Millipore, Billerca, Mass.). Membranes were blocked in TBS/0.05% Tween (Sigma) plus 5% non-fat milk (Bio-Rad) for 1 hr at room temperature before incubation overnight at 40 in primary antibody with gentle shaking. The membrane was washed between antibody cycles four times for 5 min each in TBS/Tween (0.05%). Primary antibodies: 1:250 Anti-NOX-1 or 1:1000 β-actin 1 (Abcam, Cambridge, Mass.).
# (§2) Signal detected with 1:2000 HRP-secondary antibody for 1 hour (GE Healthcare, Buckinghamshire, UK) SuperSignal Chemiluminescent Substrate (Thermo Scientific, Rockford, Ill.) on a ChemiDoc XRS System (Bio-Rad). Densitometry was determined using Image J (http://rsb-web.nih.gov/i/).
# [5] = system: NOX-1 protein in βTC-3 cells; experiment: NOX-1 protein expression (western blot); type: cell-based; details: Mus musculus, 24 h; read-out: inhibition of PIC induction of NOX-1 protein
# Description: as §1, §2
# βTC-3 cells [6] = experiment: Glucose-stimulated insulin secretion (GSIS) after PIC; type: cell-based, mouse; details: βTC-3, 1 mM vs 16 mM glucose, p<0.01
# Description: Treated islets or cells then were washed with PBS and placed in 1 mL serum-free Kreb-Ringer buffer (115 mM NaCl, 24 mM NaHCO3, 5 mM KCl, 1 mM MgCl2, and 25 mM HEPES) for 1 hour at 370 C. Low (1 mM) or high (16 mM) glucose was added for […] for 30 min. Insulin levels in media were measured by ELISA (Mercodia, Winston Salem, N.C.) as per the manufacturer's instructions.
smiles,measurement,setting,value
"CC(=O)c1ccc2c(c1)Nc1ccccc1S2 [ML171, 2-acetylphenothiazine]",inhibition of PIC-induced ROS (DCFDA conversion),βTC-3 cells [1],dose dependent inhibition
same,block of PIC-induced activation of caspase-3,βTC-3 cells [2],≤ 97%±3.1%
same,cytokine induced cell death (YO-PRO-1 RFU),"primary mouse islets; 1 μM, p<0.05",protected islets from cytokine induced cell death
same,reduction of PIC induced islet apoptosis,"primary mouse islets; 10 μM, 24 hours",86%±4%
same,inhibition of PIC-induced expression of NOX-1,"[3]; 1 μM, 24 hours",84%
same,induction of gene NOX-1 by PIC,"[3]; NCTT-1 100 nM, ML171 1 μM",attenuated
same,inhibition at 1 µM,[4],100%
same,inhibition at 1 µM,[5],100%
same,glucose-stimulated insulin secretion with PIC,βTC-3 cells [6],restoring the glucose-sensitive insulin response
